The source of these data is patent publication US20100069316A1, “TREATMENT FOR MULTIPLE MYELOMA” (Ares Trading S.A., priority 2006, published 2010).

Format in all cases: cell-based, human
In test [1] the test system is myeloma cell lines (XG-3 and XG-12). The test can be described thus: Cells in S phase (BrdU) in myeloma cell lines. Particulars: XG-3 and XG-12, IC10, IC50, IC90 doses. As to the method: The cell cycle distribution of the cell lines was assessed by flow cytometry analysis by propidium iodide (PI) and bromodeoxyuridine (BrdU) double-staining. Thirty minutes before stopping the culture, BrdU (10 μM) were added to the cultures and then the cells were collected by centrifugation, washed twice in phosphate buffer saline (PBS) and fixed in 70% ethanol for 20 minutes at room temperature. After two washes with PBS, cells were resuspended in 50 μL of 3N HCl, 0.5% Tween 20 and incubated 20 minutes at 20° C. to denature DNA. […] The fluorescence of FL1-H (BrdU) and FL2-A (PI) were analyzed on a FACScan flow cytometer using Cell Quest software (Becton Dickinson).
(§1) Two myeloma cell lines (XG-3 and XG-12) that are sensitive to compound A (1-(4-{4-[4-(4-chlorophenyl)-pyrimidin-2-ylamino]-benzoyl}-piperazin-1-yl)-ethanone) were selected for the study. To assess the effect of compound A on myeloma cell survival, the percentage apoptotic cells was determined using binding of annexin V to apoptotic cells. The effect of compound A on the cell cycle was assessed by evaluating the percentage of cells in the S phase of the cell cycle by incorporation of BrdU-FITC. Apoptosis, cell cycle and cell numeration were evaluated daily on a four day culture period on the cell lines using the IC10, IC50 and I90 respective doses of compound A.

Test [2] has as its system XG7 myeloma cell line. The test can be described thus: Cell proliferation assay (tritiated thymidine incorporation), XG7. Particulars: Homo sapiens, XG7, alone or with fixed Velcade/Melphalan. As to the method:
(§2) Myeloma cells were harvested in the exponential growth phase (at day 3 after culture passage when the cell concentration is around 5×10^5 cells/ml). Cells were washed twice, cultured for 3 hours in RPMI1640 and 10% FCS, washed twice. This makes it possible to remove cell-bound growth factors (in particular recombinant IL-6). Then cells are plated in 96-well flat-bottomed microplates at various concentrations depending on their doubling time: • 5×10^3 cells/well in 100 μl for the cell lines: XG-1, XG-7 • 10^4 cells/well in […] for the cell lines: XG-2, XG-4, XG-6, XG-11, PRMI8226, L363 • 2×10^4 cells/well in 100 μl for the cell lines: XG-3, XG-12, XG-13, XG-14, XG-19, XG-20
(§3) The culture medium used were: • PRMI1640, 10% FCS and 0.5 ng/ml of IL-6 for XG-1, XG-2, XG-3, XG-4, XG-6, XG-7, XG-11, XG-12, XG-13, XG-19, XG-20 cells • X-VIVO20 and 0.5 ng/ml IL-6 for XG-14 cells • PRMI1640 and 10% FCS for RPMI8226 and L363 cells
(§4) The diluted compounds, DMSO or control culture medium were added in 100 μl at the start of the culture. Three culture wells were done for one compound dilution and the experiments were done twice (finally six culture wells for one compound dilution).
(§5) Cells were cultured for 4 days. Eight hours before the end of the culture, 0.5 μCi of tritiated thymidine were added in 50 μl of RPMI1640 and 10% FCS. Cells were then extracted with a cell collector and the thymidine incorporation was determined using a beta cell counter.
(§6) For each experiment, the mean tritiated thymidine incorporations (mean values determined on three culture wells) were plotted against the logarithmic concentrations of the compound. The curves were fitted with exponential regression, which was determined using the concentrations defining the inhibition response (usually 3-4 concentrations).
(§7) The concentrations yielding 50% and 90% inhibition of the proliferation of myeloma cells were determined with these regression curves.
(§8) The concentration yielding 10% (IC10) or 50% (IC50) inhibition of the myeloma cell lines were determined and the data are listed in Table 2.
(§9) Compound A was tested in combination with melphalan or Velcade. Increasing concentration of compound A (0, 0.01, 0.03, 0.12, 0.37, 1.1, 3.1, 10, 30 μM) were applied on 4 myeloma cell lines alone or in combination with Velcade or melphalan at concentration yielding around 10% or 50% inhibition.
In general terms: Incorporation of labelled thymidine or its analogues reports DNA synthesis.

In test [3] the test system is XG3 myeloma cell line. The experiment in a line: Cell proliferation assay (tritiated thymidine incorporation), XG3. The note with it: Homo sapiens, XG3, alone or with fixed Velcade/Melphalan. The protocol: as §2, §3, §4, §5, §6, §7, §8, §9
Test [4] has as its system XG-12 myeloma cell line. The experiment in a line: Cell numeration, XG-12. The note with it: day 3 of culture. As to the method: as §1
Test [5] concerns XG-3 myeloma cell line. The test can be described thus: Cell cycle measurement (BrdU/PI, S phase), XG-3. Particulars: day 3 of culture. As to the method:
The cell cycle distribution of the cell lines was assessed by flow cytometry analysis by propidium iodide (PI) and bromodeoxyuridine (BrdU) double-staining. Thirty minutes before stopping the culture, BrdU (10 μM) were added to the cultures and then the cells were collected by centrifugation, washed twice in phosphate buffer saline (PBS) and fixed in 70% ethanol for 20 minutes at room temperature. After two washes with PBS, cells were resuspended in 50 μL of 3N HCl, 0.5% Tween 20 and incubated 20 minutes at 20° C. to denature DNA. The cells were then recovered by centrifugation, resuspended in 250 μL of 10 mM sodium tetraborate to neutralize the reaction, washed twice with PBS, 0.05% Tween 20, and incubated with 20 μL of anti-BrdU-FITC (BD Biosciences). After two additional washes, the cells were resuspended in 500 μL of PBS, 0.05% Tween 20 containing 10 μg/ml PI. The fluorescence of FL1-H (BrdU) and FL2-A (PI) were analyzed on a FACScan flow cytometer using Cell Quest software (Becton Dickinson).
as §1

Test [6] deals with myeloma cell lines (XG-3 and XG-12). The test can be described thus: Induction of apoptosis (annexin V) in myeloma cell lines. The note with it: XG-3 and XG-12, IC10, IC50, IC90 doses, four day culture.
From the text: Apoptotic cells were detected using fluorescein isothiocyanate-labelled annexin V (FITC-annexin-V, Boehringer Mannheim). Annexin V has a high affinity for phosphatidylserine present on the outer cytoplasmic membrane of apoptotic cells. Cells were washed, labeled with FITC-annexin-V according to the manufacturer's recommendations and analyzed with a FACScan flow cytometer using Cell Quest software (Becton Dickinson, Moutain View, Calif., USA).
as §1

[7] abbreviates: concentration of compound A yielding 50% inhibition of proliferation, read-out: IC50.
Where [8] appears, read: concentration of compound A yielding 90% inhibition of proliferation.

“Also recorded” adds a separate entry of the source.

A word on the IC50: it is the point on the concentration scale where inhibition reaches its midpoint. As usually defined, the IC90 is the point of the concentration-response curve where the effect stands at 90%.

On to `CC(=O)N1CCN(C(=O)c2ccc(Nc3nccc(-c4ccc(Cl)cc4)n3)cc2)CC1` [Compound A, 1-(4-{4-[4-(4-Chloro-phenyl)-pyrimidin-2-ylamino]-benzoyl}-piperazin-1-yl)-ethanone], for which the “number of cells in the S phase of the cell cycle” value in test [1] is recorded as “induced a decrease in the number of cell in the S phase”. For the same molecule, the IC50 worked out at 6.36 µM in test [2] (setting [7]) and 1.49 µM in test [3] (setting [7]). For the same molecule, the values for the IC90 in test [2] (setting [8]) and in test [3] (setting [8]) were 9.33 µM and 6.35 µM, respectively. In addition, the “Cells (×10^6/ml) cell counts” value was 0.35 ×10^6/ml in test [4] (XG-12, compound A at IC50 concentration) and 0.11 ×10^6/ml in test [4] (XG-12, compound A at IC90 concentration). For the same molecule, the “S phase (%) percentage of cells in the S phase” value came out at 32.1% in test [5] (XG-3, compound A at IC10 concentration); 29.2% in test [5] (XG-3, compound A at IC50 concentration); 15.3% in test [5] (XG-3, compound A at IC90 concentration). In addition, in test [6], the “induction of apoptosis of myeloma cell lines” value is “induced apoptosis of myeloma cell lines; also recorded: dose- and time-dependent”.
